# Test results: patent publication US8653098B2, “Pyrazolopyridine PI3K inhibitor compounds and methods of use” (Genentech, Inc., priority 2008, dated 2014)
# Columns and labels:
# [1] = tested on: MDA-MB-361.1; test: In Vitro Cell Proliferation Assay (CellTiter-Glo), MDA-MB-361.1; format: cell-based; details: MDA-MB-361.1, Breast, mutation status PI3K
# Protocol: (§1) The in vitro potency of Formula I exemplary compounds was measured by the cell proliferation assay, CellTiter-Glo® Luminescent Cell Viability Assay, commercially available from Promega Corp., Madison, Wis. (Example 33). This homogeneous assay method is based on the recombinant expression of Coleoptera luciferase (U.S. Pat. No. 5,583,024; U.S. Pat. No. 5,674,713; U.S. Pat. No. 5,700,670) and determines the number of viable cells in culture based on quantitation of the ATP present, an indicator of metabolically active cells (Crouch et al (1993) J. Immunol. Meth. 160:81-88; U.S. Pat. No. 6,602,677).
# (§2) format, making it amenable to automated high-throughput screening (HTS) (Cree et al (1995) Anti Cancer Drugs 6:398-404). The homogeneous assay procedure involves adding the single reagent (CellTiter-Glo® Reagent) directly to cells cultured in serum-supplemented medium. Cell washing, removal of medium and multiple pipetting steps are not required. The system detects as few as 15 cells/well in a 384-well format in 10 minutes after adding reagent and mixing.
# (§3) The homogeneous “add-mix-measure” format results in cell lysis and generation of a luminescent signal proportional to the amount of ATP present. The amount of ATP is directly proportional to the number of cells present in culture. The CellTiter-Glo® Assay generates a “glow-type” luminescent signal, produced by the luciferase reaction, which has a half-life generally greater than five hours, depending on cell type and medium used. Viable cells are reflected in relative luminescence units (RLU). The substrate, Beetle Luciferin, is oxidatively decarboxylated by recombinant firefly luciferase with concomitant conversion of ATP to AMP and generation of photons. The extended half-life eliminates the need to use reagent injectors and provides flexibility for continuous or batch mode processing of multiple plates. This cell proliferation assay an be used with various multiwell formats, e.g. 96 or 384 well format. Data can be recorded by luminometer or CCD camera imaging device. The luminescence output is presented as relative light units (RLU), measured over time.
# (§4) Efficacy of Formula I compounds were measured by a cell proliferation assay employing the following protocol (Promega Corp. Technical Bulletin TB288; Mendoza et al (2002) Cancer Res. 62:5485-5488):
# (§5) 1. An aliquot of 100 n1 of cell culture containing about 10^4 cells (PC3, Detroit562, or MDAMB361.1) in medium was deposited in each well of a 384-well, opaque-walled plate.
# (§6) 2. Control wells were prepared containing medium and without cells.
# (§7) 3. The compound was added to the experimental wells and incubated for 3-5 days.
# (§8) 4. The plates were equilibrated to room temperature for approximately 30 minutes.
# (§9) 5. A volume of CellTiter-Glo Reagent equal to the volume of cell culture medium present in each well was added.
# (§10) 6. The contents were mixed for 2 minutes on an orbital shaker to induce cell lysis.
# (§11) 7. The plate was incubated at room temperature for 10 minutes to stabilize the luminescence signal.
# (§12) 8. Luminescence was recorded and reported in graphs as RLU=relative luminescence units.
# (§13) Alternatively, cells were seeded at optimal density in a 96 well plate and incubated for 4 days in the presence of test compound. Alamar Blue™ was subsequently added to the assay medium, and cells were incubated for 6 h before reading at 544 nm excitation, 590 nm emission. EC50 values were calculated using a sigmoidal dose response curve fit.
# (§14) The anti-proliferative effects of Formula I exemplary compounds were measured by the CellTiter-Glo® Assay against various tumor cell lines, including the following: […]
# [2] = tested on: PC3; test: In Vitro Cell Proliferation Assay (CellTiter-Glo), PC3; format: cell-based; details: Homo sapiens, PC-3; PC3, Prostate, mutation status PTEN
# Protocol: as §1, §2, §3, §4, §5, §6, §7, §8, §9, §10, §11, §12, §13, §14
# [3] = molecular target: T1, p110 alpha PI3K (Homo sapiens, UniProt P42336); test: p110α (alpha) PI3K Binding Assay (fluorescence polarization; alternatively radiometric); format: biochemical; details: tested for PI3K activity according to the methods of this invention
# T1 construct: purchased Upstate Cell Signaling Solutions, Charlottesville, Va
# T1 sequence (P42336 whole entry): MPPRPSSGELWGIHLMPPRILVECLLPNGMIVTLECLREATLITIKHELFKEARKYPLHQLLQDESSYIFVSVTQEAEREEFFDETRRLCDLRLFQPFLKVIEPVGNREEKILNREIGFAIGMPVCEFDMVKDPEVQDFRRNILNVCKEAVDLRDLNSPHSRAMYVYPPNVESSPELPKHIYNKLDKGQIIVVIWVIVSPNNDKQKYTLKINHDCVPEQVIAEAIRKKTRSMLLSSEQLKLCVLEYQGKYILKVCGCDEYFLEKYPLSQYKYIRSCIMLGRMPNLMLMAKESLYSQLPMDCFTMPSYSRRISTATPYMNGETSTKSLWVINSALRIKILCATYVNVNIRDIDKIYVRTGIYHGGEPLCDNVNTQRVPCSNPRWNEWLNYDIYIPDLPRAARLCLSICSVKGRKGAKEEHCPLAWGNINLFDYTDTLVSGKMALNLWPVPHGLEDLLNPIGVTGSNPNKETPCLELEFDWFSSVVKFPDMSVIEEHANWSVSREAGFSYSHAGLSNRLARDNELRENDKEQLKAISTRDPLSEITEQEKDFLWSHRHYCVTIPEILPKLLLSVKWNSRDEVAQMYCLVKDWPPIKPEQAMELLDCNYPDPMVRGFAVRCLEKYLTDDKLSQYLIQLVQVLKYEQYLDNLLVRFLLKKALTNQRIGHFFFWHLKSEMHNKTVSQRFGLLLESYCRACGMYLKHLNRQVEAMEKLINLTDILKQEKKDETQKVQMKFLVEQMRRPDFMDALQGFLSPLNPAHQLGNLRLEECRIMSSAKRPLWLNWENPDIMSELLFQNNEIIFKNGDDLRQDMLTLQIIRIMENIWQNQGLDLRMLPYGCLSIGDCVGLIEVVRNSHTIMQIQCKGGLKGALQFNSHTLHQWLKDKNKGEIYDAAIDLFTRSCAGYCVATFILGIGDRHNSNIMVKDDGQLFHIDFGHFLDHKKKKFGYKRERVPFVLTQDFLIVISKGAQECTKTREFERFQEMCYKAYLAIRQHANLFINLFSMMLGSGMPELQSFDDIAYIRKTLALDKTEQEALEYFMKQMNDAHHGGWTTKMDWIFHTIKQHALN
# T1 sequence (P27986 whole entry partner): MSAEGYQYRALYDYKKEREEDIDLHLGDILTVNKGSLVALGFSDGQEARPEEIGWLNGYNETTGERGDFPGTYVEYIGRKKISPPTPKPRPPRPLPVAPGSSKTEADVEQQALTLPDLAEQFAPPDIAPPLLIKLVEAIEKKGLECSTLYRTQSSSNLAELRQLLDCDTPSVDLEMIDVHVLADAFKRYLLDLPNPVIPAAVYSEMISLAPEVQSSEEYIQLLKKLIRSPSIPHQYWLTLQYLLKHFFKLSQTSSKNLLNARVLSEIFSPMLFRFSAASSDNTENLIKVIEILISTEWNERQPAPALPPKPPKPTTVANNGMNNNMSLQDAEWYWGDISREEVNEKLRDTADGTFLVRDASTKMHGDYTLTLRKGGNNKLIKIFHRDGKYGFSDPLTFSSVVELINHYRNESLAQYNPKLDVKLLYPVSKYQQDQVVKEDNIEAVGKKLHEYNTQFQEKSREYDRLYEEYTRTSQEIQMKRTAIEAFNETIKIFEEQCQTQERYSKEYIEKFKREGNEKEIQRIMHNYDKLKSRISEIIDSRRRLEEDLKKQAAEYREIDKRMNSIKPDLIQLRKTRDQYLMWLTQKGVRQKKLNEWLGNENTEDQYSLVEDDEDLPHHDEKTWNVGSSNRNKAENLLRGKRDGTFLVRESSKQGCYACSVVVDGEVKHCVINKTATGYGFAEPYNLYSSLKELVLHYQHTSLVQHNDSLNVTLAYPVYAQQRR
# Protocol: Binding Assays: Initial polarization experiments were performed on an Analyst HT 96-384 (Molecular Devices Corp, Sunnyvale, Calif.). Samples for fluorescence polarization affinity measurements were prepared by addition of 1:3 serial dilutions of p110 alpha PI3K (Upstate Cell Signaling Solutions, Charlottesville, Va.) starting at a final concentration of 20 ug/mL in polarization buffer (10 mM Tris pH 7.5, 50 mM NaCl, 4 mM MgCl2, 0.05% Chaps, and 1 mM DTT) to 10 mM PIP2 (Echelon-Inc., Salt Lake City, Utah.) final concentration. After an incubation time of 30 minutes at room temperature, the reactions were stopped by the addition of GRP-1 and PIP3-TAMRA probe (Echelon-Inc., Salt Lake City, Utah.) 100 nM and 5 nM final concentrations respectively. […] This experiment also establishes the appropriate protein concentration to use in subsequent competition experiments with inhibitors.
# Inhibitor IC50 values were determined by addition of the 0.04 mg/mL p110 alpha PI3K (final concentration) combined with PIP2 (10 mM final concentration) to wells containing 1:3 serial dilutions of the antagonists in a final concentration of 25 mM ATP (Cell Signaling Technology, Inc., Danvers, Mass.) in the polarization buffer. After an incubation time of 30 minutes at room temperature, the reactions were stopped by the addition of GRP-1 and PIP3-TAMRA probe (Echelon-Inc., Salt Lake City, Utah.) 100 nM and 5 nM final concentrations respectively.
# Alternatively, inhibition of PI3K was determined in a radiometric assay using purified, recombinant enzyme and ATP at a concentration of 1 uM. The Formula I compound was serially diluted in 100% DMSO. The kinase reaction was incubated for 1 h at room temperature, and the reaction was terminated by the addition of PBS. IC50 values were subsequently determined using sigmoidal dose-response curve fit (variable slope).
SMILES,EC50 [1] [nM],EC50 [2] [nM],IC50 [3] [nM]
"Cn1ncc2c(Oc3ccc(S(C)(=O)=O)cc3)cc(-c3cccc4[nH]ncc34)nc21 [Compound 101, 6-(1H-indazol-4-yl)-1-methyl-4-(4-(methylsulfonyl)phenoxy)-1H-pyrazolo[3,4-b]pyridine]",965,881,–
"Cn1ncc2c(Nc3ccc(S(C)(=O)=O)cc3)cc(-c3cccc4[nH]ncc34)nc21 [Compound 104, 6-(1H-indazol-4-yl)-1-methyl-N-(4-(methylsulfonyl)phenyl)-1H-pyrazolo[3,4-b]pyridin-4-amine]",475,2000,2.23
"COc1cccc(Oc2cc(-c3cccc4[nH]ncc34)nc3c2cnn3C)c1 [Compound 107, 6-(1H-indazol-4-yl)-4-(3-methoxyphenoxy)-1-methyl-1H-pyrazolo[3,4-b]pyridine]",–,–,53
"COc1ccc(Oc2cc(-c3cccc4[nH]ncc34)nc3c2cnn3C)cc1OC [Compound 108, 4-(3,4-dimethoxyphenoxy)-6-(1H-indazol-4-yl)-1-methyl-1H-pyrazolo[3,4-b]pyridine]",–,–,16
"CNC(=O)c1cccc(-c2cc(-c3cccc4[nH]ncc34)nc3c2cnn3C)c1 [Compound 111, 3-(6-(1H-indazol-4-yl)-1-methyl-1H-pyrazolo[3,4-b]pyridine-4-yl)-N-methylbenzamide]",1000,2400,–
"Cn1ncc2c(-c3cccc(NS(C)(=O)=O)c3)cc(-c3cccc4[nH]ncc34)nc21 [Compound 113, N-(3-(6-(1H-indazol-4-yl)-1-methyl-1H-pyrazolo[3,4-b]pyridin-4-yl)phenyl)methanesulfonamide]",749,561,–
"COc1cc(-c2cc(Oc3ccc(S(C)(=O)=O)cc3)c3cnn(C)c3n2)ccn1 [Compound 118, 6-(2-methoxypyridin-4-yl)-1-methyl-4-(4-(methylsulfonyl)phenoxy)-1H-pyrazolo[3,4-b]pyridine]",2400,4900,–

# Further lines, results first:
EC50 [1] [nM],EC50 [2] [nM],IC50 [3] [nM],SMILES
–,–,224,"Cn1ncc2c(Oc3ccc(S(C)(=O)=O)cc3)cc(-c3ccc4[nH]ncc4c3)nc21 [Compound 102, 6-(1H-indazol-5-yl)-1-methyl-4-(4-(methylsulfonyl)phenoxy)-1H-pyrazolo[3,4-b]pyridine]"
–,–,82.8,"CCCNc1cc(-c2cccc3[nH]ncc23)nc2c1cnn2C [Compound 103, 6-(1H-indazol-4-yl)-1-methyl-N-propyl-1H-pyrazolo[3,4-b]pyridin-4-amine]"
–,–,13.7,"Cn1ncc2c(Oc3ccc(S(C)(=O)=O)cc3)cc(-c3cccc4c(N)n[nH]c34)nc21 [Compound 105, 7-(1-methyl-4-(4-(methylsulfonyl)phenoxy)-1H-pyrazolo[3,4-b]pyridin-6-yl)-1H-indazol-3-amine]"
–,–,399,"Cc1cccc(C)c1Oc1cc(-c2cccc3[nH]ncc23)nc2c1cnn2C [Compound 106, 4-(2,6-dimethylphenoxy)-6-(1H-indazol-4-yl)-1-methyl-1H-pyrazolo[3,4-b]pyridine]"
346,750,–,"Cn1ncc2c(-c3ccc(S(C)(=O)=O)cc3)cc(-c3cccc4[nH]ncc34)nc21 [Compound 115, 6-(1H-indazol-4-yl)-1-methyl-4-(4-(methylsulfonyl)phenyl)-1H-pyrazolo[3,4-b]pyridine]"
–,–,47.5,"COc1ccc(-c2cc(Oc3ccc(S(C)(=O)=O)cc3)c3cnn(C)c3n2)cn1 [Compound 117, 6-(6-methoxypyridin-3-yl)-1-methyl-4-(4-(methylsulfonyl)phenoxy)-1H-pyrazolo[3,4-b]pyridine]"
–,–,575,"Cn1ncc2c(Oc3ccc(S(C)(=O)=O)cc3)cc(-c3ccnc(O)c3)nc21 [Compound 120, 4-(1-methyl-4-(4-(methylsulfonyl)phenoxy)-1H-pyrazolo[3,4-b]pyridin-6-yl)pyridin-2-ol]"
–,–,153,"Cn1ncc2c(Oc3ccc(S(C)(=O)=O)cc3)cc(-c3cccc4c(N)noc34)nc21 [Compound 121, 7-(1-methyl-4-(4-(methylsulfonyl)phenoxy)-1H-pyrazolo[3,4-b]pyridin-6-yl)benzo[d]isoxazol-3-amine]"
